What was measured:
HGGX42 [1] = H3.3 G34R paediatric high-grade glioma line; assay: maximal growth inhibition (yFin) relative to DMSO / staurosporine; higher = more efficacious
Outline: (§1)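 Patient-derived pHGG/DIPG cell lines and astrocyte controls were grown on 1% Geltrex-coated 384-well plates and exposed by pin tool to a 10-point threefold dilution series (mean top concentration 35 μM), in triplicate. Exposure was 7 days (iAstro 3 days) at 37 °C, 5% CO2. CellTiter-Glo luminescence was log2-transformed, normalised per plate to % activity between negative (solvent) and positive control wells, and pooled. EC50 and maximal response (yFin) come from the lowest-AICc three- or four-parameter log-logistic fit.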

SUDIPGIV [2] = diffuse intrinsic pontine glioma line; assay: as above
Outline: as §1

HABS [3] = astrocyte control; assay: as above
Outline: as §1

DIPGX7 [4] = H3.3 K27M diffuse intrinsic pontine glioma line; assay: as above
Outline: as §1

HGGX6 [5] = H3.3 G34R paediatric high-grade glioma line; assay: as above
Outline: as §1

SUDIPGXIII [6] = diffuse intrinsic pontine glioma line; assay: as above
Outline: as §1

DIPGX29 [7] = H3.3 K27M diffuse intrinsic pontine glioma line; assay: as above
Outline: as §1

HGGX39 [8] = paediatric high-grade glioma line; assay: as above
Outline: as §1

DIPGX37 [9] = H3.3 K27M diffuse intrinsic pontine glioma line; assay: as above
Outline: as §1

SUDIPGXIX [10] = diffuse intrinsic pontine glioma line; assay: as above
Outline: as §1

iAstro [11] = astrocyte control; assay: as above
Outline: as §1

SUDIPGXVII [12] = diffuse intrinsic pontine glioma line; assay: as above
Outline: as §1

HGGX2 [13] = paediatric high-grade glioma line; assay: as above
Outline: as §1

HGGX42 [14] = assay: EC50 (inflection of fitted growth-inhibition curve) (log10 M)
Outline: as §1

SUDIPGIV [15] = assay: as above
Outline: as §1

HABS [16] = assay: as above
Outline: as §1

DIPGX7 [17] = assay: as above
Outline: as §1

HGGX6 [18] = assay: as above
Outline: as §1

SUDIPGXIII [19] = assay: as above
Outline: as §1

DIPGX29 [20] = assay: as above
Outline: as §1

HGGX39 [21] = assay: as above
Outline: as §1

DIPGX37 [22] = assay: as above
Outline: as §1

SUDIPGXIX [23] = assay: as above
Outline: as §1

iAstro [24] = assay: as above
Outline: as §1

SUDIPGXVII [25] = assay: as above
Outline: as §1

HGGX2 [26] = assay: as above
Outline: as §1

HGGX42 [27] = assay: area under dose-response curve of % growth inhibition (log2 RLU vs DMSO / staurosporine), 1e-11 to 1e-4 M (% x log10 M); higher = more growth inhibition
Outline: (§2)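 On 1% Geltrex-coated 384-well plates, patient-derived pHGG/DIPG cell lines and astrocytes were treated in triplicate across 10 threefold dilutions (mean top concentration 35 μM) for 7 days, with iAstro treated for 3 days, at 37 °C, 5% CO2. Log2-transformed CellTiter-Glo luminescence was normalised per plate to % activity between solvent and positive controls. Area under the curve was obtained by the trapezoid rule from a log-logistic fit, or from a smoothing spline when that fit failed.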

SUDIPGVI [28] = diffuse intrinsic pontine glioma line; assay: as above
Outline: as §2

SUDIPGIV [29] = assay: as above
Outline: as §2

HABS [30] = assay: as above
Outline: as §2

DIPGX7 [31] = assay: as above
Outline: as §2

HGGX6 [32] = assay: as above
Outline: as §2

SUDIPGXIII [33] = assay: as above
Outline: as §2

DIPGX29 [34] = assay: as above
Outline: as §2

SUDIPGXXI [35] = diffuse intrinsic pontine glioma line; assay: as above
Outline: as §2

DIPGX9 [36] = diffuse intrinsic pontine glioma line; assay: as above
Outline: as §2

HGGX39 [37] = assay: as above
Outline: as §2

DIPGX37 [38] = assay: as above
Outline: as §2

SUDIPGXIX [39] = assay: as above
Outline: as §2

iAstro [40] = assay: as above
Outline: as §2

SUDIPGXVII [41] = assay: as above
Outline: as §2

HGGX2 [42] = assay: as above
Outline: as §2

SUDIPGVI [43] = assay: maximal growth inhibition (yFin) relative to DMSO / staurosporine; higher = more efficacious
Outline: as §1

SUDIPGXXI [44] = assay: as above
Outline: as §1

DIPGX9 [45] = assay: as above
Outline: as §1

SUDIPGVI [46] = assay: EC50 (inflection of fitted growth-inhibition curve) (log10 M)
Outline: as §1

SUDIPGXXI [47] = assay: as above
Outline: as §1

DIPGX9 [48] = assay: as above
Outline: as §1

SMILES: CO[C@H]1C[C@@H]2CC[C@@H](C)[C@@](O)(O2)C(=O)C(=O)N2CCCC[C@H]2C(=O)O[C@H]([C@H](C)C[C@@H]2CC[C@@H](OCCO)[C@H](OC)C2)CC(=O)[C@H](C)/C=C(\C)[C@@H](O)[C@@H](OC)C(=O)[C@H](C)C[C@H](C)/C=C/C=C/C=C/1C [EVEROLIMUS]
- maximal growth inhibition (HGGX42 [1]): 95.7%
- maximal growth inhibition (SUDIPGIV [2]): 87.7%
- maximal growth inhibition (HABS [3]): 86.6%
- maximal growth inhibition (DIPGX7 [4]): 98.8%
- maximal growth inhibition (HGGX6 [5]): 50%
- maximal growth inhibition (SUDIPGXIII [6]): 85.2%
- maximal growth inhibition (DIPGX29 [7]): 107%
- maximal growth inhibition (HGGX39 [8]): 97.2%
- maximal growth inhibition (DIPGX37 [9]): 100%
- maximal growth inhibition (SUDIPGXIX [10]): 90.9%
- maximal growth inhibition (iAstro [11]): 85%
- maximal growth inhibition (SUDIPGXVII [12]): 73.8%
- maximal growth inhibition (HGGX2 [13]): 94.8%
- EC50 (log10 M) (HGGX42 [14]): -4.78
- EC50 (log10 M) (SUDIPGIV [15]): -4.85
- EC50 (log10 M) (HABS [16]): -4.63
- EC50 (log10 M) (DIPGX7 [17]): -4.76
- EC50 (log10 M) (HGGX6 [18]): -4.78
- EC50 (log10 M) (SUDIPGXIII [19]): -4.77
- EC50 (log10 M) (DIPGX29 [20]): -4.57
- EC50 (log10 M) (HGGX39 [21]): -4.56
- EC50 (log10 M) (DIPGX37 [22]): -4.6
- EC50 (log10 M) (SUDIPGXIX [23]): -4.79
- EC50 (log10 M) (iAstro [24]): -4.83
- EC50 (log10 M) (SUDIPGXVII [25]): -4.83
- EC50 (log10 M) (HGGX2 [26]): -4.67
- area under dose-response curve (HGGX42 [27]): 107
- area under dose-response curve (SUDIPGVI [28]): 113
- area under dose-response curve (SUDIPGIV [29]): 97.4
- area under dose-response curve (HABS [30]): 54.8
- area under dose-response curve (DIPGX7 [31]): 75.4
- area under dose-response curve (HGGX6 [32]): 62.9
- area under dose-response curve (SUDIPGXIII [33]): 92.4
- area under dose-response curve (DIPGX29 [34]): 95.9
- area under dose-response curve (SUDIPGXXI [35]): 203
- area under dose-response curve (DIPGX9 [36]): 149
- area under dose-response curve (HGGX39 [37]): 99.1
- area under dose-response curve (DIPGX37 [38]): 103
- area under dose-response curve (SUDIPGXIX [39]): 72
- area under dose-response curve (iAstro [40]): 96.6
- area under dose-response curve (SUDIPGXVII [41]): 74.4
- area under dose-response curve (HGGX2 [42]): 78.5

SMILES: COC(=O)Nc1nc2cc(C(=O)c3ccccc3)ccc2[nH]1 [MEBENDAZOLE]
- maximal growth inhibition (SUDIPGVI [43]): 22.1%
- maximal growth inhibition (SUDIPGIV [2]): 63.1%
- maximal growth inhibition (HABS [3]): 32.9%
- maximal growth inhibition (DIPGX29 [7]): 25.1%
- maximal growth inhibition (SUDIPGXXI [44]): 98.3%
- maximal growth inhibition (DIPGX9 [45]): 36.9%
- maximal growth inhibition (HGGX39 [8]): 28.5%
- maximal growth inhibition (DIPGX37 [9]): 36.4%
- maximal growth inhibition (SUDIPGXIX [10]): 31.4%
- maximal growth inhibition (iAstro [11]): 28.1%
- maximal growth inhibition (HGGX2 [13]): 47.6%
- EC50 (log10 M) (SUDIPGVI [46]): -5.51
- EC50 (log10 M) (SUDIPGIV [15]): -5.58
- EC50 (log10 M) (HABS [16]): -6.45
- EC50 (log10 M) (DIPGX29 [20]): -6.23
- EC50 (log10 M) (SUDIPGXXI [47]): -6.53
- EC50 (log10 M) (DIPGX9 [48]): -6.44
- EC50 (log10 M) (HGGX39 [21]): -6.61
- EC50 (log10 M) (DIPGX37 [22]): -6.7
- EC50 (log10 M) (SUDIPGXIX [23]): -6.45
- EC50 (log10 M) (iAstro [24]): -5.94
- EC50 (log10 M) (HGGX2 [26]): -5.91
- area under dose-response curve (HGGX42 [27]): 38.7
- area under dose-response curve (SUDIPGVI [28]): 30.4
- area under dose-response curve (SUDIPGIV [29]): 93.5
- area under dose-response curve (HABS [30]): 80.6
- area under dose-response curve (DIPGX7 [31]): 20.7
- area under dose-response curve (HGGX6 [32]): 27.4
- area under dose-response curve (SUDIPGXIII [33]): 17.5
- area under dose-response curve (DIPGX29 [34]): 53.6
- area under dose-response curve (SUDIPGXXI [35]): 246
- area under dose-response curve (DIPGX9 [36]): 90
- area under dose-response curve (HGGX39 [37]): 73.2
- area under dose-response curve (DIPGX37 [38]): 94.4
- area under dose-response curve (SUDIPGXIX [39]): 71
- area under dose-response curve (iAstro [40]): 47.3
- area under dose-response curve (SUDIPGXVII [41]): 40.1
- area under dose-response curve (HGGX2 [42]): 93.5

Reference: the supplement of paper PMC8253809
